Marks after values point to notes of the source that are not given here.
Tests used:
tyrosinase [1] = experiment: Western blotting, expression of tyrosinase protein in Melan-a cells; type: cell-based, mouse
Description: Protein concentration in the cell lysate was measured using the Pierce protein assay kit (Pierce Biotechnology, Inc., Rockford, USA), using BSA as standard. After adding same quantity of protein ([…]) on each lane, the proteins were separated by electrophoresis on 10% polyacrylamide gel. After transblotting onto nitrocellulose membrane, the membrane was incubated with PEP7 (1:10000 dilution, anti-tyrosinase antibody), PEP1 (1:10000 dilution, anti-TRP1 antibody) and PEP8 (1:10000 dilution, anti-TRP2 antibody). Then, the membrane was incubated with horseradish peroxidase-conjugated anti-rabbit IgG (1:1000 dilution; Amersham, Bucks, UK). Immunoreactive bands were detected by chemiluminescence using the ECL western blotting detector (Amersham, Bucks, UK). Band intensity was measured using the ImageJ program (NIH, Bethesda, USA). β-actin was used as internal control group for the immunoblotting.

tyrosinase [2] = biological target: T1, tyrosinase (Mus musculus, UniProt P11344); experiment: Cell-extracted tyrosinase activity of Melan-a cells; type: biochemical; conditions: 12.5 μg/mL, compared with the control group
T1 construct: endogenous in cells; host or cells: Melan-a cells
T1 sequence (P11344 19-533): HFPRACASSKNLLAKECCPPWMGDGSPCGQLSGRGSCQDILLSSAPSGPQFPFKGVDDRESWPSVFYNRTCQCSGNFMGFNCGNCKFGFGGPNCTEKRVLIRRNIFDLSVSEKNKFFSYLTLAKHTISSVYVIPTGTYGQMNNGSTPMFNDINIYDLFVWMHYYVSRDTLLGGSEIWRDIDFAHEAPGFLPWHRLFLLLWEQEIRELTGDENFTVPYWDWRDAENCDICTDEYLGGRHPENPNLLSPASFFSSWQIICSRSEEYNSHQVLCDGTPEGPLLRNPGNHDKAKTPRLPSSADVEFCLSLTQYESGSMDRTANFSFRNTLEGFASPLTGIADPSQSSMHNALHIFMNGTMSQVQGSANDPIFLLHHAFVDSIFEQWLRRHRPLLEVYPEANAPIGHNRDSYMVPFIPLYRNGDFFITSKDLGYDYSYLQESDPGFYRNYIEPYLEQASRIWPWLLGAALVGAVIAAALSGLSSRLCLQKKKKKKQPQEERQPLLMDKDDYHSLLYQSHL
Description: (§1) Melan-a cells were seeded on a 60 φ cell culture dish (4×10^5 cells/well) and cultured in a 10% CO2 incubator at 37° C. for 72 hours. After washing with PBS, the cells were suspended by adding 200 μL of 1% triton X-100 to the culture dish, transferred to an e-tube, and fixed on ice. 60 minutes later, after shaking for 2-3 seconds, the cells were centrifuged at 4° C. and 14,000 rpm for 20 minutes to obtain 50 μL of protein, which was mixed with 49 μL of 0.1 M phosphate buffer (pH 6.8) and 1 μL of AT, EGCG, GT, WT or BT (1.563, 3.125, 6.25 or 12.5 μg/mL). After allowing the mixture to stand for 1 hour and adding 100 μL of L-DOPA, the mixture was incubated in a 10% CO2 incubator at 37° C. for 1 hour. Absorbance was measured at 490 nm using an ELISA reader. Tyrosinase activity was calculated according to the following equation: % inhibition=[1−(Asample/Ablank)]×100, wherein Ablank is the absorbance of the control group (excluding the test sample) and Asample is the absorbance of the test compound.

Melan-a cells [3] = experiment: Melanin analysis in Melan-a cells; type: cell-based, mouse; conditions: 12.5 μg/mL, compared with the control group
Description: (§2) Melan-a cells were purchased from Dr. Dorothy Bennett (St. George's Hospital, UK). Immortalized Melan-a cells with high pigment content are derived from C57BL/6 mouse. The cells were cultured using Roswell Park Memorial Institute (RPMI)-1640 medium containing 10% fetal bovine serum (FBS), 1% penicillin/streptomycin (P/S) and 200 nM 12-O-tetradecanoylphorbol 13-acetate (TPA) in a 10% CO2 incubator at 37° C. for 72 hours.
Melan-a cells were seeded on a 96-well plate (2×10^4 cells/well) and cultured in a 10% CO2 incubator at 37° C. for 24 hours. Then, after adding 200 μL of AT, KA, EGCG, GT, WT or BT diluted to various concentrations (1.563, 3.125, 6.25 and 12.5 μg/mL) using RPMI-1640 medium to the wells, the cells were cultured in a 10% CO2 incubator at 37° C. for 72 hours, and then washed. This procedure was repeated several times. After dissolving Melanin with 1N NaOH, absorbance was measured at 490 nm using an ELISA reader. Melanin content (%) was calculated according to the following equation: % melanin content=(Asample/Ablank)×100, wherein Ablank is the absorbance of the control group (excluding the test sample) and Asample is the absorbance of the test compound.

[4] = Electron donating ability (DPPH radical scavenging, Blois' method)
Description: DPPH radical scavenging effect was measuring according to the Blois' method (1958). […] After adding 1 mL of the test sample in a test tube, 4×10^−4 M DPPH (4 mL) was added. The resulting mixture was shaken vigorously, allowed to stand in warm water of 60° C. for 10 seconds, and absorbance was measured at 525 nm. BHT was used as the positive control group. Then, free radical scavenging activity of each solution was calculated as “% inhibition” according to the following equation: % inhibition=[1−(Asample/Ablank)]×100, wherein Ab1ank is the absorbance of the control group (excluding the test sample) and Asample is the absorbance of the test compound.

Melan-a cells [5] = experiment: MTT assay, viability of Melan-a cells; type: cell-based, mouse
Description: as §2
Melan-a cells were seeded on a 96-well plate (0.5×10^4 cells/well) and cultured in a 10% CO2 incubator at 37° C. for 24 hours. After adding 200 μL of AT, KA, EGCG, GT, WT or BT diluted to various concentrations (3.125, 6.25, 12.5, 25 and 50 μg/mL) using RPMI-1640 medium to the wells, the cells were cultured in a 10% CO2 incubator at 37° C. for 48 hours. Then, the cells were cultured in a medium containing […] in a 10% CO2 incubator at 37° C. for 3 hours. Subsequently, after settling the cells by centrifuging the plate at 1,000 rpm for 10 minutes, the medium was removed. Then, 200 μL of DMSO was added and the cells were suspended for 15 minutes in a plate shaker. Absorbance was measured at 540 nm using an ELISA reader. Cell viability (%) was calculated according to the following equation: % cell viability=(Asample/Ablank)×100, wherein Ablank is the absorbance of the control group (excluding the test sample) and Asample is the absorbance of the test compound.

tyrosinase [6] = biological target: T1, tyrosinase; experiment: Intracellular tyrosinase activity of Melan-a cells; type: biochemical; conditions: 12.5 μg/mL, compared with the control group
Description: as §1, with “for 24” for “for 72”, “and Asampie” for “and Asample”

[7] = system: UVB-induced hyperpigmentation; experiment: Melanin index (mexameter), brown guinea pig; type: in vivo; conditions: 2% sample topical
Description: Three brown guinea pigs weighing 450-550 g were purchased from Oriental Yeast Co. Ltd. (OYC; Japan). The animals were accustomed to the test environment for 7 days. The animals were housed in individual cages under the environment of 22±1° C. and 50±5% relative humidity with 12-hour alternate dark/light cycles. Feed and water were given ad libitum.
UVB-induced hyperpigmentation was elicited on the back of the brown guinea pig according to the method of Choi et al. (2004). After anesthetizing the guinea pig with ketamine hydrochloride (100 mg/kg BW), 24 separate areas (φ 12 mm) on the skin of the back was exposed to UVB radiation (302-nm sunlamp). The areas were exposed to UVB of 500 mJ/cm^2 for 3 consecutive weeks, once a week. That is, a total of 1,500 mJ/cm^2 of UVB was radiated.
On day 10 after the final UVB radiation, 30 μL (1.06 mg/cm^2/day) of 2% HQ, EGCG, GT, WT or BT was topically applied for 4 weeks to the hyperpigmented areas (9 areas per each) using a micropipette, twice a day, and 4 days a week. Saline was used as control, and propylene glycol:ethanol:water (5:3:2) was used as vehicle control.
Before and after the topical application of the test sample, change in melanin pigmentation was measured 3 times in a non-invasive manner using a mexameter, once a week. The degree of pigmentation was analyzed by averaging the measured values.

[8] = system: melanin pigmentation in the epithelium; experiment: Fontana-Masson's silver staining, melanin-pigmented area; type: in vivo, brown guinea pig; conditions: week 4; 2% sample
Description: In order to observe the morphological change of the skin tissue using an optical microscope, the extracted skin tissue was fixed in a 10% neutral formalin solution for 12 hours and washed with flowing water. After dehydrating in 70, 80, 95 and 100% ethanol followed by washing with xylene, the tissue was embedded in paraffin and 4 μm-thick samples were prepared using a microtome.
Paraffin was removed from the sample using xylene. After staining the sample for 60 minutes in silver nitrate solution at 56° C. according to the Masson's method (1928), followed by washing, color-toning 0.2% gold chloride solution and washing again, the sample was kept in 5% sodium thiosulfate solution for 5 minutes. Subsequently, after washing the sample once again, followed by counterstaining in nuclear fast red solution, dehydration in 95%, 95%, 100% and 100% alcohol and washing with xylene, the sample was put in Canada balsam for microscopic observation. The percentage of the melanin-pigmented area was calculated using an image analysis software.

S-100 protein = experiment: Immunohistochemical S-100 staining; type: in vivo, brown guinea pig; conditions: week 4; 2% sample
Description: (§3) After dehydration, followed by washing with xylene and embedding in paraffin, 4 μm-thick samples were prepared. The sample was adhered on a coating slide and stained using the BenchMark XT automated immunostainer (Ventana Medical Systems, USA) after removing paraffin. […] Following reaction with S-100 and HMB-45 primary antibodies diluted to 1:100, the sample was washed with reaction buffer, reacted with biotin for 20 minutes, and then reacted with streptavidin for 25 minutes. After coloring with diaminobenzidine (DAB) using the Ventana detection kit), the sample was stained for observation using an optical microscope.

gp100 protein = experiment: Immunohistochemical HMB-45 staining (gp100); type: in vivo, brown guinea pig; conditions: week 4; 2% sample
Description: as §3

For `OC[C@H]1O[C@@H](Oc2ccc(O)cc2)[C@H](O)[C@@H](O)[C@@H]1O` [AT, arbutin], which “expression of tyrosinase protein” value (tyrosinase [1]) is on record?
Its value is “no significant decrease”.

And the “tyrosinase activity in cell extract (decreased) by” value (tyrosinase [2])?
Its value is 13%.

What about the “melanin content decreased by” value (Melan-a cells [3]) of the same compound?
Its value is 18%.

What about the Electron donating ability ([4]; 800 μg/mL) of the same compound?
Its Electron donating ability is 44%.

What about the “maximum permissible level (MPL)” value (Melan-a cells [5]; mouse, 48 h) of the same compound?
Its value is “exceeds 50 μg/mL”.

And the “intracellular tyrosinase activity decreased by” value (tyrosinase [6])?
The value was 12%.

With `Cc1cc(C(C)(C)C)c(O)c(C(C)(C)C)c1` [BHT, 2,6-di-tert-butyl-4-methylphenol] as the compound, how does the Electron donating ability ([4]; 800 μg/mL) read?
Its Electron donating ability is 89%.

And the Electron donating ability ([4]; 1,000 μg/mL)?
The Electron donating ability was 55%.

With `O=C(O[C@@H]1Cc2c(O)cc(O)cc2O[C@@H]1c1cc(O)c(O)c(O)c1)c1cc(O)c(O)c(O)c1` [EGCG, epigallocatechin gallate] as the compound, how does the melanin index ([7]; week 0) read?
The melanin index was 723.5 ± 11.3^a AU.

What about the melanin index ([7]; week 1) of the same compound?
The melanin index was 704.1 ± 12.5^a* AU.

And the melanin index ([7]; week 2)?
Its melanin index is 675.9 ± 12.4^c AU.

And the melanin index ([7]; week 3)?
Its melanin index is 636.6 ± 12.2^b AU.

And the melanin index ([7]; week 4)?
Its melanin index is 582.9 ± 12.8^b AU.

And the “melanin index decreased by, as compared to the group C” value ([7]; week 4)?
Its value is 17%.

What about the “tyrosinase activity in cell extract (decreased) by” value (tyrosinase [2]) of the same compound?
The value was 18%.

What about the “melanin content decreased by” value (Melan-a cells [3]) of the same compound?
The value was 29%.

What about the Electron donating ability ([4]; 800 μg/mL) of the same compound?
The Electron donating ability was 94%.

And the “maximum permissible level (MPL)” value (Melan-a cells [5]; Melan-a cells)?
The value was 12.5 µg/mL.

And the “% of melanin pigment” value [8]?
The value was 10.5 ± 2.0^c %.

What about the Melanin pigment area [8] of the same compound?
Its Melanin pigment area is 1174 ± 189 μm^2.

What about the “melanin pigmented area decreased by, as compared to the control group” value [8] of the same compound?
The value was 48%.

What about the “% of S-100 Protein” value (S-100 protein) of the same compound?
The value was 5.3 ± 0.7^bc %.

What about the “S-100 Protein area” value (S-100 protein) of the same compound?
Its value is 611 ± 81 μm^2.

What about the “area of S-100 protein expression, decrease by, as compared to the control groups” value (S-100 protein) of the same compound?
The value was 62%.

And the “intracellular tyrosinase activity decreased by” value (tyrosinase [6])?
Its value is 61%.

What about the “% of Melanin pigment (Table 5, gp 100 protein)” value (gp100 protein) of the same compound?
Its value is 5.3 ± 0.8^c %.

What about the “Melanin pigment (area; Table 5, gp 100 protein)” value (gp100 protein) of the same compound?
Its value is 600 ± 107 μm^2.

What about the “area of gp 100 protein expression, decrease by, as compared to the group C” value (gp100 protein) of the same compound?
Its value is 61%.

Which “melanin content decreased by” value (Melan-a cells [3]) does the source give for `O=c1cc(CO)occ1O` [KA, kojic acid] here?
The value was 7%.

What about the Electron donating ability ([4]; 800 μg/mL) of the same compound?
The Electron donating ability was 19%.

And the “maximum permissible level (MPL)” value (Melan-a cells [5]; mouse, 48 h)?
The value was “exceeds 50 μg/mL”.

— patent US20120156150A1, “Composition for Improving Skin Condition Comprising Extract from Black Tea as Active Ingredient” (Keimyung University Industry Academic Cooperation Foundation, priority 2010, published 2012)
